Source: patent publication US20240083883A1, “RAD51 BINDING INHIBITORS AND METHODS OF USE THEREOF” (Sarissa Inc., priority 2020, published 2024)
Several values for one entry are separate records, joined by “and”; a condition that tells them apart may be missing. Equal values may be shown once. Read-outs that look alike come from different tables or passages of the source. Each block holds one compound with its values, some of them ahead of it.

Legend:
[1] = Solubility comparison of RAD51 inhibitors; type: physicochemical; conditions: for appearance of the 1 mM solution in H2O/DMSO: 1 mM in H2O/DMSO
Procedure: A comparison of the solubility of selected compounds of the present invention with known RAD51 inhibitors was carried out.
Aqueous samples of the mesylate salt were readily prepared and were suitable for testing in inhibition assays. Exemplary solutions were prepared as follows:
soluble in water−1.0 mg JKYN-1-mes+75.9 μl of water=20 mM (13.2 mg/ml)
Exemplary solutions were prepared as follows:
IBR2 was soluble in DMSO to at least 166.8 mM (66.7 mg/ml). Exemplary solutions were prepared as follows:
IBR120 is soluble in DMSO to at least 20 mM (7.77 mg/ml).

[2] = test system: HEK293; test: Proliferation assay, normal cell line surrogate HEK293; type: cell-based, human; conditions: HEK293, single agent, 4 days
Procedure: (§1) Proliferation assays: Cells are maintained in minimum essential medium alpha plus 10% fetal bovine serum and penicillin (50 units/mL)/streptomycin (50 mg/L) (growth medium). Cultures are incubated in a humidified atmosphere of 5% CO2 at 37° C. Rapidly proliferating cells are used to establish cultures of experimental cells, which are allowed to adhere overnight in 96-well plates or 25-cm^2 flasks prior to manipulation.
(§2) Exposure to chemotherapy drugs and combinations thereof: Cells are grown in 96-well plates and treated with simultaneous exposure to a single drug or a combination of two drugs at the concentrations indicated. The relative cell density is determined after 4 days by viability staining (alamarBlue© or neutral red).
(§3) The relative density of cells treated with two agents is normalized to the density observed for a respectively treated “second agent” control. The concentration of drug that inhibits proliferation by 50% (IC50 value) is interpolated from plotted data. The change in the IC50 value of a chemotherapy drug caused by the presence of the second agent is determined as a percent of the IC50 of the first drug alone. […] This methodology, previously reported (Ferguson et al., 2009; Blake et al., 2017; Ferguson et al., 2018), provides a quantitative, concentration-dependent representation of the magnitude of the drug interaction. […]

[3] = test system: CCD841; test: Proliferation assay, normal cell line surrogate CCD841; type: cell-based, human; conditions: CCD841, single agent, 4 days
Procedure: as §1, §2, §3

[4] = test system: HK-2; test: Proliferation assay, normal cell line surrogate HK-2; type: cell-based, human; conditions: HK-2, single agent, 4 days
Procedure: as §1, §2, §3

[5] = test system: normal cells; test: Toxicity on normal cells (summary of the normal cell line surrogates); type: cell-based, human; conditions: normal cell surrogates HEK293, CCD841, HK-2, read-out: toxicity (IC50) on normal cells, approximate
Procedure: as §1, §2
(§4) The relative density of cells treated with two agents is normalized to the density observed for a respectively treated “second agent” control. The concentration of drug that inhibits proliferation by 50% (IC50 value) is interpolated from plotted data. The change in the IC50 value of a chemotherapy drug caused by the presence of the second agent is determined as a percent of the IC50 of the first drug alone. Enhancement of cytotoxicity is indicated by a decrease in the IC50 value. This methodology, previously reported (Ferguson et al., 2009; Blake et al., 2017; Ferguson et al., 2018), provides a quantitative, concentration-dependent representation of the magnitude of the drug interaction.
FIG. 23 graphically depicts the toxicity effect on normal (not fully tumorigenic) cell line surrogates resulting from exposure to JKYN-1 (base). The cell line surrogates include: HEK293 (human embryonic kidney transformed with adenovirus 5 DNA); CCD841 (human embryonic colonic epithelial, untransformed); and HK-2 (human kidney proximal tubule, papilloma).

[6] = test system: pancreatic cancer cell line (PANC-1); test: Proliferation assay, PANC-1; type: cell-based; conditions: for inhibition of proliferation compared with IBR120: range of concentrations
Procedure: as §1, §2, §4

[7] = test system: NSCLC cell line A549b; test: Proliferation assay, A549b; type: cell-based; conditions: for inhibition of proliferation compared with IBR120: range of concentrations
Procedure: as §1, §2, §4

[8] = background section; cited from earlier work
[9] = test system: most tested cancer cell lines; conditions: cited from earlier work
[10] = test system: NSCLC cell line H1650; test: Proliferation assay, NSCLC cell line H1650; type: cell-based
Procedure: as §1, §2, §4

[11] = test system: prostate carcinoma cell line LNCaP; test: Proliferation assay, LNCaP; type: cell-based
Procedure: as §1, §2, §4

[12] = test system: MCF-7 breast carcinoma cell line; test: Proliferation assay, MCF-7; type: cell-based
Procedure: as §1, §2, §4

[13] = test system: N87 stomach carcinoma cell line; test: Proliferation assay, N87; type: cell-based
Procedure: as §1, §2, §4

[14] = test system: MDA-MB-231; test: Proliferation assay, MDA-MB-231; type: cell-based; conditions: Homo sapiens; MDA-MB-231, single agent
Procedure: as §1, §2
(§5) The relative density of cells treated with two agents is normalized to the density observed for a respectively treated “second agent” control. The concentration of drug that inhibits proliferation by 50% (IC50 value) is interpolated from plotted data. The change in the IC50 value of a chemotherapy drug caused by the presence of the second agent is determined as a percent of the IC50 of the first drug alone. […] This methodology, previously reported (Ferguson et al., 2009; Blake et al., 2017; Ferguson et al., 2018), provides a quantitative, concentration-dependent representation of the magnitude of the drug interaction.

[15] = test system: DU145 prostate carcinoma cell line; test: Proliferation assay, DU145; type: cell-based
Procedure: as §1, §2, §5

solubility in water at 10 mg/ml [1]: not very soluble in water | appearance of the 1 mM solution in H2O/DMSO [1]: less cloudy than 1 mM IBR120
Compound: CN1CCN(c2ccc(-c3ccc4c(c3)[C@H](c3c[nH]c5ccccc35)N(S(=O)(=O)Cc3ccccc3)C4)cc2)CC1 [Compound 1, (R)-3-(2-(Benzylsulfonyl)-6-(4-(4-methylpiperazin-1-yl)phenyl)isoindolin-1-yl)-1H-indole]
IC50 ([2]; Homo sapiens, HEK293, 96 h): 4.16 µM | IC50 ([3]; Homo sapiens, CCD-841, 96 h): 5.71 µM | IC50 ([4]; Homo sapiens, HK-2, 96 h): 3.92 µM | IC50 ([5]; listed as JKYN-1): 4 to 6 µM | inhibition of proliferation compared with IBR120 ([6]; PANC-1, single agent): superior activity | inhibition of proliferation compared with IBR120 ([7]; single agent): superior activity

appearance of the 1 mM solution in H2O/DMSO [1]: slightly cloudy | solubility in DMSO [1]: at least 166.8 mM and ≥ 66.7 mg/ml | upper limit of solubility in H2O/DMSO ([1]; H2O/DMSO): ~1000 µM | appearance of the 1 mM H2O/DMSO solution diluted 1:10 or more in water [1]: clear | solubility in water ([1]; water): insoluble in water
Compound: O=S(=O)(Cc1ccccc1)N1C=Cc2ccccc2C1c1c[nH]c2ccccc12 (centres unmarked) [IBR2]
aqueous solubility (background statement) [8]: low aqueous solubility | IC50 [9]: 12 to 20 µM

appearance of the 1 mM solution in H2O/DMSO [1]: a little bit cloudy | solution of 25 mg/ml in 100% DMSO ([1]; 25 mg/ml, 100% DMSO): dissolves well | solubility in DMSO [1]: at least 20 mM and ≥ 7.77 mg/ml | appearance of the 1 mM H2O/DMSO solution diluted 1:10 or more in water [1]: clear | solubility in water ([1]; water): insoluble in water
Compound: O=S(=O)(Cc1ccccc1)N1Cc2ccccc2[C@@H]1c1c[nH]c2ccccc12 [IBR120]
aqueous solubility (background statement) [8]: low aqueous solubility

solubility in water [1]: highly soluble in water | solubility ([1]; water, thermodynamic from solid): ≥ 13200 µg/mL and ≥ 20000 µM | decrease of the IC50 value of osimertinib ([10]; H1650, combination with osimertinib): up to 75% | IC50 ([10]; H1650, single agent, Mesylate Salt, read-out: IC50): ≥ 4 µM | IC50 ([10]; Homo sapiens, NCI-H1650, H1650, 6 μM osimertinib, read-out: IC50 of JKYN-1-mesylate in the presence of osimertinib): ~2 µM | IC50 ([10]; Homo sapiens, NCI-H1650, H1650, single agent, read-out: IC50): 3.95 µM | IC50 ([11]; Homo sapiens, single agent): 3.36 ± 0.37 µM | decrease of the IC50 value of enzalutamide ([11]; combination with enzalutamide): up to 30% | IC50 ([12]; Homo sapiens, MCF7, MCF-7, about 5 μM (or more) 4-OH-tamoxifen, read-out: IC50 of JKYN-1-mesylate in the presence of 4-OH-tamoxifen): ≤ 1.5 µM | IC50 ([12]; Homo sapiens, MCF7, MCF-7, single agent, read-out: IC50): 4.36 ± 0.42 µM | decrease of the IC50 value of 4-OH-tamoxifen ([12]; MCF-7, combination with 4-OH-tamoxifen): up to 80% | IC50 ([12]; MCF-7, single agent, Mesylate Salt, read-out: IC50): 4 to 5 µM | decrease of the IC50 value of regorafenib ([13]; N87, combination with regorafenib): up to 54% | IC50 ([13]; N87, single agent): 2.21 ± 1.13 µM | IC50 ([6]; Homo sapiens, PANC-1, single agent): 4.69 ± 1.14 µM | IC50 [14]: 5.66 ± 0.36 µM | IC50 ([7]; single agent): 3.96 ± 0.44 µM
Compound: CN1CCN(c2ccc(-c3ccc4c(c3)[C@H](c3c[nH]c5ccccc35)N(S(=O)(=O)Cc3ccccc3)C4)cc2)CC1.CS(=O)(=O)O [JKYN-1-mesylate, (R)-3-(2-(Benzylsulfonyl)-6-(4-(4-methylpiperazin-1-yl)phenyl)isoindolin-1-yl)-1H-indole, Mesylate Salt]
IC50 ([2]; Mesylate Salt): 2.89 µM | IC50 ([3]; Mesylate Salt): 3.68 µM | IC50 ([4]; Mesylate Salt): 3.42 µM | IC50 ([5]; Homo sapiens): 3 to 4 µM | IC50 ([5]; Mesylate Salt): 3 to 4 µM | combination effect with osimertinib ([10]; H1650, range of concentrations): synergistic effect | combination effect with enzalutamide ([11]; range of concentrations): synergistic effect | combination effect with 4-OH-tamoxifen ([12]; MCF-7, range of concentrations): synergistic effect | combination effect with regorafenib ([13]; N87): synergistic effect | combination effect with afatinib ([6]; PANC-1, combination with afatinib): positive (synergistic) effect | inhibition of proliferation compared with IBR120 ([6]; PANC-1, single agent): superior activity | effect on inhibition by regorafenib ([7]; combination with regorafenib): potentiates regorafenib | inhibition of proliferation compared with IBR120 ([7]; single agent): superior activity | effect on inhibition by enzalutamide ([15]; DU145, combination with enzalutamide): enhanced enzalutamide toxicity | combination effect with enzalutamide ([15]; DU145, range of concentrations): synergistic effect
